{"source": "patent US8097585B2", "about": "“Methods of treating inflammation by administration of heme oxygenase-1 and products of heme degradation” (priority 2002, dated 2012)", "key": {"HO-1": {"test_system": "HO-1", "experiment": "HO-1 expression in colonic tissue during DSS-colitis (Western blot, semi-quantitative PCR)", "format": "in vivo, C57BL/6 mice", "conditions": "CoPP 5 mg/kg i.p. daily, entire 7 day period", "method": "Western Blot Analysis. Tissue samples from the distal colon of the animals were removed and snap frozen with liquid nitrogen. The frozen tissue was ground thoroughly and homogenized in Ripa buffer supplemented with proteinase inhibitors. The protein concentration was determined by the Bio-Rad Dc Protein Assay™ according manufacturers instructions (Bio-Rad, Hercules, Calif.). Electrophoresis was performed under denaturing conditions according to Laemmli with 10% polyacrylamide gels by loading 35 μg protein. Proteins were transferred onto a polyvinyldifluoridine membrane (Immobilon P™; Millipore, Bedford, Mass.) by electroblotting. Proteins were then detected with rabbit polyclonal antibodies directed against human HO-1 (StressGen, Victoria, Canada) or β-tubulin (Boehringer Mannheim, Mannheim, Germany). Proteins were visualized using HRP-conjugated donkey anti-rabbit IgG or goat anti-mouse IgG (Pierce) and the ECL assay (Amersham Life Science, Arlington Heights, Ill.), according to manufacturer's instructions.\nSemi-Quantitative PCR. RNA was extracted using RNeasy Mini Kits (Qiagen Inc., CA, USA) and reverse transcribed into cDNA with the RNA PCR Kit (TaKaRa, PanVera, Madison, Wis., USA). […] PCR products (10-20 μl) were analyzed in an ethidium bromide-stained 1% agarose gel."}, "NFAT": {"test_system": "NFAT", "experiment": "EMSA of nuclear extracts, NFAT DNA binding", "format": "cell-based", "conditions": "Jurkat T cells, PMA plus ionomycin, 100 μM biliverdin", "method": "Nuclear protein extraction and electrophoretic mobility shift assay (EMSA). Jurkat T cells were cultured in 10% FCS supplemented RPMI 1640 with 50 nM phorbol myristyl acetate (PMA) and 2 μM ionomycin (both reagents from ICN Biomedicals) in the presence or absence of 100 μM biliverdin. Following 0, 2, and 4 hrs of stimulation, cells (30×10^6 cells for each group at each time points) were collected, washed twice with PBS, and pelleted. Nuclear and cytoplasmic extracts were prepared according to a modified Shapiro's method (Shapiro et al., DNA 7(1):47-55, 1988). Protein concentrations were determined by the Bradford assay. The following oligonucleotides (Invitrogen, Calsbad, Calif.) were used for EMSA:\nNFAT, (coding) 5′-[…]-3′ (SEQ ID NO:5),\n(non-coding) 5′-[…]-3′ (SEQ ID NO:6); and\nOligonucleotides were radioactively labeled with [^32P] ATP. The EMSA reactions were assembled as previously described (Usheva et al., Proc. Natl. Acad. Sci. USA 93(24):13571-6, 1996). Digital images from the EMSA radiographs were obtained using an image scanner."}, "B6AF1 splenocytes": {"test_system": "B6AF1 splenocytes", "experiment": "Mixed lymphocyte culture (irradiated DBA/2 splenocytes as stimulators) in vitro", "format": "cell-based, mouse", "conditions": "biliverdin 10 μM", "method": "Mixed lymphocyte culture (MLC). Irradiated (25Gy, ^137Cs) DBA/2 splenocytes (5×10^5/well) were co-cultured with responders (5×10^5/well) in a 96 well round bottom plates for 3 days at 37° C., 95% air with 5% CO2. When using cells from cardiac recipients as responders, the co-culture period was 3 days without any further in vitro treatment. ^3H-thymidine (1 μCi/well) was added 16 hours before termination of cell culture, and ^3H-thymidine incorporation was measured."}}, "note": "Where a name gives a salt, the structure may show the parent alone."}
{"compound": "C=CC1=C(C)c2cc3[n-]c(cc4nc(cc5[n-]c(cc1n2)c(C)c5CCC(=O)[O-])C(CCC(=O)[O-])=C4C)c(C)c3C=C.[Co+2].[H+].[H+]", "note": "[CoPP, Cobalt protoporphyrin]", "values": [{"measurement": "HO-1 protein in the intestine", "setting": "HO-1", "result": "consistently high levels of HO-1 protein"}]}
{"compound": "C=CC1=C(C)/C(=C/C2=NC(=C\\c3[nH]c(/C=C4\\NC(=O)C(C)=C4C=C)c(C)c3CCC(=O)O)/C(CCC(=O)O)=C2C)NC1=O", "note": "[biliverdin, biliverdin dihydrochloride]", "values": [{"measurement": "DNA binding of NFAT", "setting": "NFAT", "result": "inhibited DNA binding"}, {"measurement": "alloantigen mediated T cell activation (proliferation)", "setting": "B6AF1 splenocytes", "result": "significant suppressive effect"}]}
